Measured values as given in US20220280526A1, “AGENT FOR THE TREATMENT OF PSORIASIS” (EBERHARD KARLS UNIVERSITAET TUEBINGEN MEDIZINISCHE FAKULTAET, priority 2019, published 2022).

How the values were obtained:
IκBζ expression = IκBζ expression in synchronized HaCaT cells stimulated with IL-36α; type: cell-based; conditions: 1 h IL-36α
Method: Synchronization of the cells with a double thymidine block was performed as described before. After the second thymidine block, cells were released in normal medium. At 0, 4, 10 and 14 h after release, cells were stimulated with IL-36α and/or abemaciclib for 1 h. Propidium iodide staining was performed by flow cytometry (LSRII, Becton Dickson) to detect the cell cycle phase at the time point of cell harvest.
Western blot analysis was performed as described before. The following antibodies were used and purchased from Cell Signaling: anti-IκBζ (9244), anti-phospho-STAT3 at Tyr705 (9145), anti-phospho-STAT3 at Ser727 (9134), anti-STAT3 (12640), anti-p65 (8242), anti-EZH2 (5246), anti-pRB (phospho-RB at Ser807/811; 8516), anti-FoxM1 (5436), anti-H3 (4499), anti-CDK4 (12790), anti-CDK6 (13331), anti-CDK9 (2316), anti-cyclin D1 (2978), anti-cyclin D2 (3741), anti-cyclin D3 (2936), anti-cJUN (9165), anti-H3K27me3 (9733), anti-GAPDH (2118), anti-H3 (9715) and anti-β-actin (3700). Anti-β-Gal (sc377257) and anti-GFP (sc9996) were obtained from Santa Cruz Biotechnology. Anti-pEZH2 at T345 (61242) anti-pEZH2 at T487 (12820) were purchased from Active Motif and anti-pan-methyl-lysine antibody was purchased from Enzo (ADI-KAP-TF121-E). For detection of mouse IκBζ, a self-made antibody raised against peptides […] (SEQ ID NO:3) and […] (SEQ ID NO:4) was applied.

EZH2-STAT3 interaction = assay: Co-immunoprecipitation of EZH2 and STAT3 in HaCaT cells; type: cell-based; conditions: 30 min IL-36α
Method: Cells were lysed by mechanical disruption using standard lysis buffer (50 mM Tris-HCl pH 7.5, 150 mM NaCl, 1% NP-40, lx Protease inhibitor cocktail, Roche). Subsequently, lysates were sonicated for 5 minutes at high power (Bioruptor, Diagenode), followed by pre-clearing of the lysates with protein A/G PLUS agarose beads (Santa Cruz, sc-2003) for 1 h at 4° C. Precleared lysates were incubated either with antibodies specific for CDK4 (Cell Signaling, 12790), CDK6 (Sigma, HPA002637), EZH2 (Cell Signaling, 5246), STAT3 (MA1-13042, Thermo Fisher) or β-Gal antibody (sc-19119, Santa Cruz) as an IgG control, overnight at 4° C. For endogenous IPs immune complexes were precipitated with protein A/G PLUS agarose beads and eluted by 6×SDS-PAGE sample buffer.

NFKBIZ (IκBζ) promoter = assay: Luciferase assay of NFKBIZ promoter activity in HaCaT cells; type: cell-based; conditions: IL-36α-stimulated HaCaT cells, 24 h
Method: Luciferase constructs were generated as described; Muller et al. (2018; loc. Cit.). 1*10^4 HEK293T cells were transfected for 24 h using HBS buffer and CaCl2 and a mixture of 400 ng luciferase vector and 100 ng TK-Renilla vector. For expression of other factors, the following concentrations were used: 70 ng p65, 200 ng cJUN, STAT3 or EZH2 constructs and 500 ng CDK4, CDK6 or cyclin D expression constructs (not shown). For transfection of HaCaT cells, 3*10^5 cells were transfected for 4 h using Lipofectamine 3000 and a mixture of 800 ng luciferase vector, 200 ng TK-Renilla vector and 4 μg expression or control plasmids according to the manufacturer's instructions (Thermo Fisher). 36 h after transfection, luciferase activity was measured with the Dual Luciferase Reporter Assay Kit (Promega). Expression of the reporter constructs was calculated as the fold induction over unstimulated transfected cells from data of three independent experiments.

EZH2 = EZH2 phosphorylation in keratinocytes (immunoblot); type: cell-based, human; conditions: IL-36α- or IL-17A/TNFα-treated keratinocytes
From the text: (§1) HaCaT cells were maintained in DMEM with 10% FCS and antibiotics. Human primary keratinocytes were freshly isolated from foreskin and maintained in CnT-07S medium with gentamycin (CELLnTEC). Recombinant human IL-36α (aa 6-158) and mouse IL-36α (aa 6-160) were purchased from R&D Systems. Recombinant IL-17A (11340174), TNFα (11343013) and IL-1β (11340013) were ordered from Immunotools. Flagellin (vac-fla) and poly I:C (vac-pic) were purchased from Invivogen. In cell culture experiments, the cytokines were used at the following concentrations, as described previously: IL-36α (100 ng/mL), IL-17A (200 ng/mL), TNFα (10 ng/mL) and IL-1β (100 ng/mL). Flagellin was applied at 10 ng/mL and poly(I:C) was added at a final concentration of 100 ng/mL. […] When indicated, cells were starved for 2 h prior to cytokine treatment, by removing cell culture supplements from the growth medium.
(§2) Western blot analysis was performed as described before. […]

STAT3 = STAT3 phosphorylation in primary human keratinocytes (immunoblot); type: cell-based; conditions: after stimulation with IL-36α
From the text: as §1, §2

[1] = tested on: STAT3, EZH2, CDK4 and CDK6 binding to the NFKBIZ promoter region; assay: Chromatin immunoprecipitation at the NFKBIZ promoter in IL-36α-stimulated HaCaT cells; type: cell-based; conditions: 30 min IL-36α

With Abemaciclib mesylate the “IL-36α-triggered IκBζ induction in all phases of the cell cycle” value (IκBζ expression) was “completely suppressed”, the “interaction of EZH2 with STAT3” value (EZH2-STAT3 interaction) was “abrogate” and the “expression of luciferase construct harboring the NFKBIZ (IκBζ) promoter” value (NFKBIZ (IκBζ) promoter) was “abrogated”. The “inducible phosphorylation of EZH2 at threonine 345 (T345)” value (EZH2) was “completely abrogated”, the “phosphorylation of STAT3 at threonine 727 (T727)” value (STAT3) was “remained unaffected” and the “phosphorylation of STAT3 at tyrosine 705 (Y705)” value (STAT3) was “completely absent”. The “recruitment of STAT3/EZH2/CDK4/6 multi-protein complex to the NFKBIZ promoter region” value [1] was “abrogated”.
